In patent US9328138B2 (priority 2011, dated 2016):

What was measured:
[1] = target: T1, HCV genotype 1b (BK) NS3 modified enzyme with a R155K mutation (Hepatitis C virus genotype 1b, UniProt P26663, R1181K); experiment: HCV NS3 protease time-resolved fluorescence (TRF) assay, genotype 1b R155K; assay type: biochemical; settings: Ki 1b R155K
T1 construct: HCV genotype 1b (BK) NS3 modified enzyme
Summary of the method: (§1)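 Time-resolved fluorescence, ex 340/em 615 nm, 400 μs delay; IC50 by four-parameter fit. Enzyme preincubated with compound 10 min, then TRF substrate 25 nM final added and reaction run 6 h at RT. Buffer HEPES pH 7.5 with NaCl, glycerol, Triton X-100, DTT, PEG 8000.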

[2] = target: HCV NS3 protease genotype 3a (3A-1) (Hepatitis C virus genotype 3a, UniProt Q81258); experiment: HCV NS3 protease time-resolved fluorescence (TRF) assay, genotype 3a; assay type: biochemical; settings: Ki 3a
Summary of the method: as §1

[3] = genotype 1b (BK) NS3 R155K, single value

Structure (SMILES) | Ki [1, 3] [nM] | Ki [2] [nM] | Ki ([1]; first of two values printed in the cell (not explained)) [nM] | Ki ([1]; second of two values printed in the cell (not explained)) [nM]
C=C[C@@H]1C[C@]1(NC(=O)[C@@H]1C[C@@H]2CN1C(=O)[C@H](C(C)(C)C)NC(=O)O[C@@H]1C[C@H]1CCCCCc1c(nc3ccccc3c1OCCCN1CCCC1=O)O2)C(=O)NS(=O)(=O)C1(C)CC1 [Example 118, (1aR,5S,8S,10R,22aR)-5-tert-butyl-N-[(1R,2S)-2-ethenyl-1-{[(1-methylcyclopropyl)sulfonyl]carbamoyl}cyclopropyl]-3,6-dioxo-17-[3-(2-oxopyrrolidin-1-yl)propoxy]-1,1a,3,4,5,6,9,10,18,19,20,21,22,22a-tetradeca hydro-8H-7,10-methano cyclopropa[18,19][1,10,3,6] dioxadiazacyclononadecino [11,12-b]quinoline-8-carboxamide] | 0.066 | 0.89 | – | –
C=C[C@@H]1C[C@]1(NC(=O)[C@@H]1C[C@@H]2CN1C(=O)[C@H](C1CCCC1)NC(=O)O[C@@H]1CCC[C@H]1CC/C=C/Cc1c(nc3ccccc3c1OC)O2)C(=O)NS(=O)(=O)C1CC1 [Example 4, (3aR,7S,10S,12R,21E,24aS)-7-cyclo pentyl-N-{(1R,2S)-1-[(cyclopropylsulfonyl)carbamoyl]-2-ethenylcyclopropyl}-19-methoxy-5,8-dioxo-1,2,3,3a,5,6,7,8,11,12,20,23,24,24a-tetradeca hydro-10H-9,12-methanocyclopenta[18,19][1,10,3,6] dioxadiazacyclononadecino[11,12-b]quinoline-10-carboxamide] | 0.11 | 3.4 | – | –
C=C[C@@H]1C[C@]1(NC(=O)[C@@H]1C[C@@H]2CN1C(=O)[C@H](C(C)(C)C)NC(=O)O[C@@H]1C[C@H]1CCCCCc1c(nc3cc(C)ccc3c1OCCCNC)O2)C(=O)NS(=O)(=O)C1(C)CC1 [Example 149, (1aR,5S,8S,10R,22aR)-5-tert-butyl-N-[(1R,2S)-2-ethenyl-1-{[(1-methylcyclopropyl)sulfonyl]carbamoyl}cyclopropyl]-14-methyl-17-[3-(methylamino)propoxy]-3,6-dioxo-1,1a,3,4,5,6,9,10,18,19, 20,21,22,22a-tetradecahydro-8H-7,10-methanocyclopropa[1,19] [1,10,3,6]dioxadiazacyclonona decino[11,12-b]quinoline-8-carboxamide] | 0.041 | 0.74 | – | –
C=C[C@@H]1C[C@]1(NC(=O)[C@@H]1C[C@@H]2CN1C(=O)[C@H](C(C)(C)C)NC(=O)O[C@@H]1C[C@H]1CCCCCc1c(nc3cc(C)ccc3c1OCCCN1CCOCC1)O2)C(=O)NS(=O)(=O)C1(C)CC1 [Example 147, (1aR,S,8S,10R,22aR)-5-tert-butyl-N-[(1R,2S)-2-ethenyl-1-{[(1-methylcyclopropyl)sulfonyl]carbamoyl}cyclopropyl]-14-methyl-17-[3-(morpholin-4-yl)propoxy]-3,6-dioxo-1,1a,3,4,5,6,9, 10,18,19,20,21,22,22a-tetradecahydro-8H-7,10-methanocyclopropa[18,19] [1,10,3,6]dioxadiaza cyclononadecino[11,12-b] quinoline-8-carboxamide] | 0.26 | 2.2 | – | –
C=C[C@@H]1C[C@]1(NC(=O)[C@@H]1C[C@@H]2CN1C(=O)[C@H](C1CCCC1)NC(=O)N1CC[C@@H](C1)OCCCCCCc1c(nc3ccccc3c1OCC)O2)C(=O)NS(=O)(=O)C1CC1 [Example 33, (2R,4S,7S,13S)-7-cyclopentyl-N-{(1R,2S)-1-[(cyclopropylsulfonyl)carbamoyl]-2-ethenylcyclopropyl}-21-ethoxy-6,9-dioxo-3,4,6,7,8,9,12, 13,15,16,17,18,19,20-tetradecahydro-2H,11H-2,5:10,13-dimethano[1,14,5,7,10]dioxatriazacyclo docosino[15,16-b]quinoline-4-carboxamide] | 0.32 | 22 | – | –
C=C[C@@H]1C[C@]1(NC(=O)[C@@H]1C[C@@H]2CN1C(=O)[C@H](C1CCCC1)NC(=O)O[C@H]1C[C@@H]1CC/C=C/Cc1c(nc3ccccc3c1OC)O2)C(=O)NS(=O)(=O)C1CC1 [Example 12, (1aS,5S,8S,10R,19E,22aS)-5-cyclo pentyl-N-{(1R,2S)-1-[(cyclopropylsulfonyl)carbamoyl]-2-ethenylcyclopropyl}-17-methoxy-3,6-dioxo-1,1a,3,4,5,6,9,10,18,21,22,22a-dodecahydro-8H-7,10-methanocyclopropa[18,19][1,10,3,6] dioxadiazacyclononadecino[11,12-&]quinoline-8-carboxamide] | 3.3 | 340 | – | –
C=C[C@@H]1C[C@]1(NC(=O)[C@@H]1C[C@@H]2CN1C(=O)[C@H](C(C)(C)C)NC(=O)O[C@@H]1C[C@H]1CCCCCc1c(nc3ccccc3c1OCCCN1CCC3(CCCC3)C1)O2)C(=O)NS(=O)(=O)C1(C)CC1 [Example 207, (1aR,5S,8S,10R,22aR)-17-[3-(2-azaspiro[4.4]non-2-yl)propoxy]-5-tert-butyl-N-[(1R,2S)-2-ethenyl-1-{[(1-methylcylcopropyl)sulfonyl]carbamoyl}cyclopropyl]-3,6-dioxo-1,1a,3,4,5,7,9, 10,18,19,20,21,22,22a-tetradecahydro-8H-7,10-methanocyclopropa[18,19][1,10,3,6] dioxadiazacyclononadecino[11,12-b] quinoline-8-carboxamide] | 0.11 | 1.3 | – | –
C=C[C@@H]1C[C@]1(NC(=O)[C@@H]1C[C@@H]2CN1C(=O)[C@H](C1CCCC1)NC(=O)O[C@@H]1CCC[C@H]1CC/C=C/Cc1c(nc3ccc(Br)cc3c1O)O2)C(=O)NS(=O)(=O)C1CC1 [Example 22, (3aR,7S,10S,12R,21E,24aS)-17-bromo-7-cyclopentyl-N-{(1R,2S)-1-[(cyclopropylsulfonyl)carbamoyl]-2-ethenylcyclopropyl}-19-hydroxy-5,8-dioxo-1,2,3,3a,5,6,7,8,11,12,20,23,24,24a-tetradecahydro-10H-9,12-methanocyclopenta[18,19][1,10,3,6]dioxadiazacyclononadecino[11,12-b]quinoline-10-carboxamide] | 0.33 | 9.3 | – | –
C=C[C@@H]1C[C@]1(NC(=O)[C@@H]1C[C@@H]2CN1C(=O)[C@H](C(C)(C)C)NC(=O)O[C@@H]1C[C@H]1CCCCCc1c(nc3ccccc3c1OCCCNC1CCCC1)O2)C(=O)NS(=O)(=O)C1(C)CC1 [Example 182, (1aR,5S,8S,10R,22aR)-5-tert-butyl-17-[3-(cyclopentylamino)propoxy]-N-[(1R,2S)-2-ethenyl-1-{[(1-methylcyclopropyl)sulfonyl]carbamoyl}cyclopropyl]-3,6-dioxo-1,1a,3,4,5,6,9,10, 18,19,20,21,22,22a-tetradecahydro-8H-7,10-methanocyclopropa[18,19][1,10,3,6] dioxadiazacyclononadecino[11,12-b] quinoline-8-carboxamide] | 0.064 | 0.61 | – | –
C=C[C@@H]1C[C@]1(NC(=O)[C@@H]1C[C@@H]2CN1C(=O)[C@H](C(C)(C)C)NC(=O)O[C@@H]1CCC[C@H]1CCCCCc1c(nc3ccccc3c1OCCN1CCOCC1)O2)C(=O)NS(=O)(=O)N(C)C [Example 106, (3aR,7S,10S,12R,24aR)-7-tert-butyl-N-{(1R,2S)-1-[(dimethylsulfamoyl)carbamoyl]-2-ethenylcyclopropyl}-19-[2-(morpholin-4-yl)ethoxy]-5,8-dioxo-1,2,3,3a,5,6,7,8,11,12,20,21,22,23,24,24a-hexadecahydro-10H-9,12-methanocyclopenta[18,19][1,10,3,6]dioxadiazacyclononadecino[11,12-b]quinoline-10-carboxamide] | 0.78 | 17 | – | –
O=C1N[C@@H](C2CCCC2)C(=O)N2C[C@@H](C[C@H]2C(=O)N[C@]2(C(=O)NS(=O)(=O)C3CC3)C[C@H]2C2CC2)Oc2nc3ccccc3c(O)c2C/C=C/CC[C@@H]2CCC[C@H]2O1 [Example 21, (3aR,7S,10S,12R,21E,24aS)-7-cyclopentyl-N-[(1S,2R)-2-[(cyclopropylsulfonyl)carbamoyl]-1,1′-bi(cyclopropyl)-2-yl]-19-hydroxy-5,8-dioxo-1,2,3,3a,5,6,7,8,11,12,20,23,24,24a-tetradecahydro-10H-9,12-methanocyclopenta[18,19][1,10,3,6]dioxadiazacyclononadecino[11,12-b]quinoline-10-carboxamide] | 0.51 | 9.6 | – | –
C=C[C@@H]1C[C@]1(NC(=O)[C@@H]1C[C@@H]2CN1C(=O)[C@H](C1CCCC1)NC(=O)O[C@@H]1CCC[C@H]1CC/C=C/Cc1c(nc3ccccc3c1O)O2)C(=O)NS(=O)(=O)C1(C)CC1 [Example 23, (3aR,7S,10S,12R,21E,24aS)-7-cyclopentyl-N-[(1R,2S)-2-ethenyl-1-{[(1-methylcyclopropyl)sulfonyl]carbamoyl}cyclopropyl]-19-hydroxy-5,8-dioxo-1,2,3,3a,5,6,7,8,11,12,20,23,24,24a-tetradecahydro-10H-9,12-methanocyclopenta[18,19][1,10,3,6]dioxadiazacyclononadecino[11,12-b]quinoline-10-carboxamide] | 0.11 | 0.64 | – | –
C=C[C@@H]1C[C@]1(NC(=O)[C@@H]1C[C@@H]2CN1C(=O)[C@H](C(C)(C)C)NC(=O)O[C@@H]1C[C@H]1CCCCCc1c(nc3ccccc3c1OC1C3COCC1CN(CCOC)C3)O2)C(=O)NS(=O)(=O)C1(C)CC1 (stereo partly drawn) [Example 261, (1aR,5S,8S,10R,22aR)-5-tert-butyl-N-[(1R,2S)-2-ethenyl-1-{[(1-methylcyclopropyl)sulfonyl]carbamoyl}cyclopropyl]-17-{[7-(2-methoxyethyl)-3-oxa-7-azabicyclo[3.3.1]non-9-yl]oxy}-3,6-dioxo-1,1a,3,4,5,6,9,10,18,19,20,21,22,22a-tetradecahydro-8H-7,10-methanocyclopropa[18,19][1,10,3,6]dioxadiazacyclononadecino[11,12-b]quinoline-8-carboxamide] | – | 3.45 | 0.026 | 0.155
